Assay results: publication PMC8269692 (Biochemistry, 2021)
Blank lines part the entries; values can stand above or below the compound they belong to.

Molecular target: T1, human macrophage galactose-type lectin (hMGL) extracellular domain (Homo sapiens, UniProt Q8IUN9)
T1 sequence (Q8IUN9 with tags, fused parts or gaps isoform Q8IUN9-2): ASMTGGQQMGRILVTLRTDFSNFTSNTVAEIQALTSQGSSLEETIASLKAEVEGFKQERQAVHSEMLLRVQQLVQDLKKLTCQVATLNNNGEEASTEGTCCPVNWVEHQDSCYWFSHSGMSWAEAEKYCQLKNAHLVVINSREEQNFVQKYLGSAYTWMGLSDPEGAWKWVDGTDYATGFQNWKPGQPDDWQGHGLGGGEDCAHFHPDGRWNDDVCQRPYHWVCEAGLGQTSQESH
Assay: ITC titration of ligands into hMGL
Assay type: binding
Conditions: for KA: one-set-of-sites model

[1] = ITC, buffered D2O (10 mM HEPES sodium salt, 50 mM NaCl, 2 mM CaCl2, pH 7.4), 25 °C
[2] = ITC, buffered D2O, pH 7.4, 25 °C
[3] = ITC, buffered H2O (10 mM HEPES sodium salt, 50 mM NaCl, 2 mM CaCl2, pH 7.4), 25 °C
[4] = ITC, buffered H2O, pH 7.4, 25 °C
[5] = deuterium isotope effect, DIE = H2O – D2O

- Kd [1]: 7.25 µM
- KA [1]: 13.79 ×10^4 M^–1
- n (number of binding sites, stoichiometry) [2]: 0.97
- ΔG [2]: –7.01 kcal mol^–1
- ΔH [2]: –6.81 kcal mol^–1
- Δ−(TΔS) [2]: –0.20 kcal mol^–1
- Kd [3]: 17.7 µM
- KA [3]: 5.64 ×10^4 M^–1
- ΔG [4]: –6.49 kcal mol^–1
- ΔH [4]: –11.30 kcal mol^–1
- Δ−(TΔS) [4]: 4.81 kcal mol^–1
- n (number of binding sites, stoichiometry) (ITC, buffered H2O, pH 7.4, 25 °C, n normalized to active cell concentration of the dissociating trimer): 0.99
- ΔΔG [5]: 0.52 kcal mol^–1
- ΔΔH [5]: –4.49 kcal mol^–1
- Δ−(TΔS) [5]: 5.01 kcal mol^–1
- ΔΔH (deuterium isotope effect, DIE = H2O – D2O, listed as free glycan): −4.49 kcal mol^–1
Structure (SMILES): CC(=O)N[C@H]1C(O)O[C@H](CO)[C@H](O)[C@@H]1O (stereo partly drawn) [GalNAc, N-acetyl-D-galactosamine]

- Kd [3]: 16 to 17 µM
Structure (SMILES): CC(=O)N[C@H]1[C@@H](O[C@H](C)[C@H](N)C(=O)O)O[C@H](CO)[C@H](O)[C@@H]1O [Thr-Tn]

- affinity for hMGL (result in words) (ITC, buffered H2O, 25 °C): no indication of a detectable affinity
Structure (SMILES): CO[C@@H]1O[C@H](CO)[C@@H](O)[C@H](O)[C@H]1O [methyl β-glucopyranoside]

- affinity relative to β-anomer and GalNAcα1-O-Thr conjugate (ITC, buffered H2O, 25 °C): 2 fold
Structure (SMILES): CO[C@H]1O[C@H](CO)[C@H](O)[C@H](O)[C@H]1NC(C)=O [α-Me-GalNAc, Methyl N-acetyl-α-D-galactosamine]
